For this data set the following is noted: 298.15 K, 101.33 kPa, Liquid; for viscosity: Capillary tube (Ostwald / Ubbelohde) method; for speed of sound: Sing-around technique in a fixed-path interferometer; for mass density: Vibrating tube method.

Numbers after ± are expanded uncertainties.

`CCCCCCCCO` [octan-1-ol]: the viscosity (as a rule, the resistance of a fluid to flow) is reported as 7.68 ± 0.17 mPa·s; the speed of sound – broadly, how fast a sound wave travels through the sample – is listed as 1347.3 ± 1.6 m/s; the mass density (usually mass per unit of volume) is 821.877 ± 0.24 kg/m3.
For `CCCCOCCO` [2-butoxyethan-1-ol] the same measures were 2.885 ± 0.063 mPa·s, 1306 ± 1.6 m/s and 896.312 ± 0.24 kg/m3.
Turning to `CCCCCCO` [hexan-1-ol], the viscosity is 4.623 ± 0.1 mPa·s, the speed of sound is 1303.5 ± 1.6 m/s and the mass density was determined as 815.652 ± 0.24 kg/m3.
Turning to `CCCCCCCCCCO` [decan-1-ol], the viscosity stood at 11.81 ± 0.28 mPa·s, the speed of sound amounted to 1379.4 ± 1.6 m/s and the mass density is recorded as 826.489 ± 0.24 kg/m3.
